Source: patent US9615577B2, “Herbicidally active cyclic dione compounds, or derivatives therefor, substituted by a phenyl which has an alkynyl-containing substituent” (Syngenta Limited, priority 2012, dated 2017)

Key:
Format in all cases: in vivo
[1] = tested on: Echinochloa crus-galli (ECHCG); assay: Test 1B glasshouse assay for herbicidal activity, post-emergence; conditions: Echinochloa crus-galli; for pest or weed control at 30 g/ha: 30 g/ha application rate; for pest or weed control at 60 g/ha: 60 g/ha application rate; for pest or weed control at 125 g/ha: 125 g/ha application rate
Method: (§1) Seeds of a variety of monocotyledonous and dicotyledonous test plants are sown in standard soil in pots. The plants are cultivated for one day (for pre-emergence) or for about 12 days (range=10-13 days) (for post-emergence) under controlled conditions in a glasshouse (warm climate species at 24/18° C., cool climate species at 20/16° C., both at day/night; 16 hours light; 65% humidity).
(§2) An “instant formulation”, known as the “IF50”, containing 50 g/liter (i.e. 5% w/v) of the “technical” (i.e. unformulated) active ingredient is prepared by dissolving the active ingredient in a mixture of organic solvents and emulsifier, details of which are provided in the Table below. This IF50 is then mixed with a small, variable amount of acetone to aid dissolution, before addition of a 0.2% v/v aqueous solution of the adjuvant X-77 (which is a mixture of alkyl aryl polyoxyethylene glycols and free fatty acids in isopropanol, CAS Registry number 11097-66-8), as the aqueous diluent, to form an aqueous spray solution which contains a predetermined concentration of the active ingredient (which varies depending on the application rate of the active ingredient to the plants) and 0.2% v/v of the adjuvant X-77. This aqueous spray solution is then sprayed onto the plants, after one day's cultivation (for pre-emergence) or after about 12 days' cultivation (for post-emergence).
(§3) The test plants are then grown on, in a glasshouse (greenhouse) under controlled conditions (at either 24/18° C. or 20/16° C. (day/night) as mentioned above; 16 hours light; 65% humidity) and are watered twice daily. Either 15 days after application of the herbicide (15 DAA) (for post-emergence), or 20 days after application of the herbicide (20 DAA) (for pre-emergence), the test plants are evaluated visually, and an assessed percentage phytotoxicity score is given for each herbicidal application on each plant species (where 100%=total damage to plant; 0%=no damage to plant).
Warm climate (“warm season”) grassy monocotyledonous weeds: Setaria faberi (SETFA), SORVU (Sorghum bicolor (L.) Moench ssp. Bicolor, or Sorghum vulgare Pers.), Digitaria sanguinalis (DIGSA), Echinochloa crus-galli (ECHCG), and Brachiaria plantaginea (BRAPL).
Note: The herbicidal activity data (e.g. post-emergence) shown above in Biological Example 1B for Comparator compounds X-9 and X-10 is thought likely to have been measured some years ago, probably using a variant of the above-described test method. Also, for the post-emergence activity of X-9 and X-10 it is not currently known exactly how many days after application of the herbicide the phytotoxicity on the plants was measured.

[2] = tested on: Setaria faberi (SETFA); assay: Test 1A glasshouse assay for herbicidal activity, post-emergence; conditions: 312 h, evaluated after 13 days, read-out: percentage phytotoxicity SETFA
Method in brief: (§4)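 Pre-em: spray 1 d after sowing; post-em: spray after 8 d cultivation. Formulation in acetone/water (50:50), 0.5% Tween 20. Glasshouse 24/16 °C d/n, 14 h light, 65% humidity. Readout: visual % damage at 13 d.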

[3] = tested on: Alopecurus myosuroides (ALOMY); assay: as above; conditions: 312 h, evaluated after 13 days, read-out: percentage phytotoxicity ALOMY
Method in brief: as §4

[4] = tested on: Echinochloa crus-galli (ECHCG); assay: as above; conditions: 312 h, evaluated after 13 days, read-out: percentage phytotoxicity ECHCG
Method in brief: as §4

[5] = tested on: Amaranthus retroflexus (AMARE); assay: as above; conditions: 312 h, evaluated after 13 days, read-out: percentage phytotoxicity AMARE
Method in brief: as §4

[6] = tested on: Setaria faberi (SETFA); assay: Test 1A glasshouse assay for herbicidal activity, pre-emergence; conditions: 312 h, evaluated after 13 days, read-out: percentage phytotoxicity SETFA
Method in brief: as §4

[7] = tested on: Alopecurus myosuroides (ALOMY); assay: as above; conditions: 312 h, evaluated after 13 days, read-out: percentage phytotoxicity ALOMY
Method in brief: as §4

[8] = tested on: Echinochloa crus-galli (ECHCG); assay: as above; conditions: 312 h, evaluated after 13 days, read-out: percentage phytotoxicity ECHCG
Method in brief: as §4

[9] = tested on: Amaranthus retroflexus (AMARE); assay: as above; conditions: 312 h, evaluated after 13 days, read-out: percentage phytotoxicity AMARE
Method in brief: as §4

[10] = tested on: Triticum aestivum (TRZAW, winter wheat); assay: Test 1B glasshouse assay for herbicidal activity, pre-emergence; conditions: 480 h, 20 DAA, read-out: percentage phytotoxicity TRZAW
Method: as §1, §2, §3
(§5) Cool climate crop plants: Triticum aestivum (TRZAW, winter wheat), Brassica napus (BRSNN, rape, also called oilseed rape or rapeseed), Beta vulgaris (BEAVA, sugar beet).

[11] = tested on: Brassica napus (BRSNN, rape); assay: as above; conditions: 480 h, 20 DAA, read-out: percentage phytotoxicity BRSNN
Method: as §1, §2, §3, §5

[12] = tested on: Beta vulgaris (BEAVA, sugar beet); assay: as above; conditions: 480 h, 20 DAA, read-out: percentage phytotoxicity BEAVA
Method: as §1, §2, §3, §5

[13] = tested on: Brachiaria plantaginea (BRAPL); assay: Test 1B glasshouse assay for herbicidal activity, post-emergence; conditions: Urochloa plantaginea; for pest or weed control at 30 g/ha: 30 g/ha application rate; for pest or weed control at 60 g/ha: 60 g/ha application rate; for pest or weed control at 125 g/ha: 125 g/ha application rate
Method in brief: (§6)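 Warm-climate glasshouse, 24/18° C., 16 h light, 65% humidity. Spray: IF50 (50 g/liter stock) in 0.2% v/v X-77; pre-emergence 1 day post-sowing, post-emergence ~12 days (10-13). Visual phytotoxicity 0-100%, at 15 DAA post, 20 DAA pre.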

[14] = tested on: Brachiaria plantaginea (BRAPL); assay: Test 1B glasshouse assay for herbicidal activity, pre-emergence; conditions: Urochloa plantaginea, 480 h, 20 DAA, read-out: percentage phytotoxicity BRAPL
Method in brief: as §6

SMILES	pest or weed control at 30 g/ha [1] [%]	pest or weed control at 60 g/ha [1] [%]	pest or weed control at 125 g/ha [1] [%]	pest or weed control at 30 g/ha [2] [%]	pest or weed control at 250 g/ha [2] [%]	pest or weed control at 30 g/ha [3] [%]	pest or weed control at 250 g/ha [3] [%]	pest or weed control at 30 g/ha [4] [%]	pest or weed control at 250 g/ha [4] [%]	pest or weed control at 250 g/ha [5] [%]	pest or weed control at 250 g/ha [6] [%]	pest or weed control at 250 g/ha [7] [%]	pest or weed control at 250 g/ha [8] [%]	pest or weed control at 250 g/ha [9] [%]	pest or weed control at 30 g/ha [13] [%]	pest or weed control at 125 g/ha [13] [%]	plant injury at 250 g/ha [10] [%]	plant injury at 250 g/ha [11] [%]	plant injury at 250 g/ha [12] [%]	pest or weed control at 250 g/ha [14] [%]	also measured
CC#Cc1cc(C)c(C2C(=O)C3CCC(C3)C2=O)c(C)c1 (centres unmarked) [Compound A-5]	100	100	100	70	100	80	100	100	100	0	90	100	100	0	90	100	–	–	–	–	pest or weed control at 500 g/ha ([1]; 500 g/ha application rate): 100%; pest or weed control at 30 g/ha [5]: 10%; plant injury at 500 g/ha ([10]; 500 g/ha): 20%; plant injury at 500 g/ha ([11]; 500 g/ha): 90%; plant injury at 500 g/ha ([12]; 500 g/ha): 0%; pest or weed control at 60 g/ha [13]: 100%; pest or weed control at 500 g/ha ([13]; 500 g/ha application rate): 100%; pest or weed control at 500 g/ha ([14]; 500 g/ha): 100%
Cc1cc(C#CCl)cc(C)c1C1C(=O)C2CCC(C2)C1=O (centres unmarked) [Compound A-6]	90	90	–	–	90	–	70	–	100	0	100	100	100	30	90	–	–	–	–	–	pest or weed control at 62.5 g/ha [2]: 90%; pest or weed control at 62.5 g/ha [3]: 70%; pest or weed control at 62.5 g/ha [4]: 100%; pest or weed control at 62.5 g/ha [5]: 10%; plant injury at 125 g/ha [10]: 10%; plant injury at 125 g/ha [11]: 70%; plant injury at 125 g/ha [12]: 0%; pest or weed control at 60 g/ha [13]: 100%; pest or weed control at 125 g/ha [14]: 80%
CC#Cc1cc(C)c(C2C(=O)C3CCC(C3)C2=O)c(OC)c1 (centres unmarked) [Compound A-10]	90	–	100	–	100	–	100	–	100	50	100	100	100	0	90	100	–	–	–	–	plant injury at 125 g/ha [10]: 20%; plant injury at 125 g/ha [11]: 0%; plant injury at 125 g/ha [12]: 0%; pest or weed control at 125 g/ha [14]: 80%
CC#Cc1cc(Cl)c(C2C(=O)C3CCC(C3)C2=O)c(OC)c1 (centres unmarked) [Compound A-12]	90	–	100	–	100	–	90 to 100	–	100	0 to 10	100	100	100	0	70	100	30	20	10	100	pest or weed control at 62.5 g/ha [2]: 100%; pest or weed control at 62.5 g/ha [3]: 80%; pest or weed control at 62.5 g/ha [4]: 100%; pest or weed control at 62.5 g/ha [5]: 0%; pest or weed control at 62.5 g/ha ([6]; 62.5 g/ha): 100%; pest or weed control at 62.5 g/ha ([7]; 62.5 g/ha): 90%; pest or weed control at 62.5 g/ha ([8]; 62.5 g/ha): 90%; pest or weed control at 62.5 g/ha ([9]; 62.5 g/ha): 0%
CC#Cc1cc(C)c(C2C(=O)CC(c3ccccn3)CC2=O)c(C)c1 (centres unmarked) [Compound A-13]	–	–	80	90	100	70	100	80	100	60	100	100	100	80	–	100	20	70	10	90	pest or weed control at 30 g/ha [5]: 30%; pest or weed control at 30 g/ha ([6]; 30 g/ha): 70%; pest or weed control at 30 g/ha ([7]; 30 g/ha): 70%; pest or weed control at 30 g/ha ([8]; 30 g/ha): 100%; pest or weed control at 30 g/ha ([9]; 30 g/ha): 100%
CC#Cc1cc(C)c(C2=C(OC(=O)OC)CC(c3ccccn3)CC2=O)c(C)c1 (centres unmarked) [Compound A-14]	80	–	100	–	100	–	100	–	100	20	100	100	100	70	70	100	40	60	30	90	–
